Experiment: Human HepG2 cell viability assay in 384 well format
Format: toxicity, cell-based
Parameters: dose 125 nL, time 70.5 hour; cytotoxicity at 70.5 h: concentration not given beside the values
Settings: HepG2 cells, read-out: Inhibition

Structure (SMILES) | cytotoxicity at 70.5 h
O=C(NCC1CC1)[C@H]1C[C@@H]2CN(C(=O)NCC3CCCCC3)C[C@H]1O2 | 30.6%
O=C(c1ccc[nH]1)N1CCO[C@H]2CC(COCc3ccccn3)C[C@@H]21 (stereo partly specified) | 2.76%
CCN(C)C(=O)c1cc(-c2cn(C(C)C)cn2)n2ccccc12 | 26.7%
CCc1cnc(N2CCC3(CC2)CCN(c2cnn(C)c2)C3=O)nc1 | 31.2%
CN1C(=O)CC2(CCN(S(=O)(=O)N(C)C)CC2)c2ccccc21 | 33.2%
CN1C(=O)CC2(CCNCC2)c2ccccc21 | 6.26%
CN1C(=O)CC2(CCN(S(=O)(=O)c3cccs3)CC2)c2ccccc21 | 8.66%
CN1CCN(CC2CC2)C(=O)C12CCN(c1nccs1)CC2 | 7.83%
O=C(NC1CC1)c1nc2c(o1)CN(c1ncccn1)C2 | 1.1%
O=C(N1CCCC1)C12CC(CN1Cc1nccs1)C2 | -9.99%
CN(C)CCN1CCN(C)C2(CCN(c3nccs3)CC2)C1=O | -3.76%
O=C(NCC1CC1)C12CC(CN1Cc1nccs1)C2 | -9.03%
O=C(c1cnccn1)N1C[C@@H](c2ccccc2)[C@@]2(CCNC2=O)C1 | -4.45%
Cc1ccc(CN2CC[C@@H](N(C)C(C)C)[C@@H]2Cc2ccccc2)o1 | 2.54%
Cc1nc(COCC2CNCc3nccn3C2)cs1 (stereo unspecified) | 7.13%
CC(=O)N1CC[C@@H]2CN(Cc3cccc(Cl)c3)S(=O)(=O)[C@@H]2CC1 | -1.91%
CCS(=O)(=O)N1CCOC2(CCCN(c3cccc(C#N)c3)C2)C1 (stereo unspecified) | -5.28%
Cn1cc(C(=O)N[C@H]2CN(S(C)(=O)=O)[C@@H]3CCCO[C@H]23)cn1 | -9.45%
CCOCC1CN(C(=O)c2ccco2)Cc2nn(C)cc21 (stereo unspecified) | -9.75%
CCOCC1CN(C(=O)c2ccsc2)Cc2nn(C)cc21 (stereo unspecified) | -8.31%
O=C(C1=CCCC1)N1C[C@H](OCc2cccnc2)[C@H]2OCCC[C@H]21 | -9.34%
O=C(NCc1cccnc1)C1=NOC2(CCCN(CCO)C2)C1 (stereo unspecified) | -10.7%

Structure (SMILES) | cytotoxicity at 70.5 h
COCCNC(=O)[C@H]1CC[C@@H]2[C@@H](CCN2S(C)(=O)=O)O1 | 11.5%
COCCN1C(=O)CO[C@@H]2CN(S(=O)(=O)c3ccccc3)C[C@H]21 | 5.06%
CCCS(=O)(=O)N1CCc2onc(CNc3ncccn3)c2C1 | 6.05%
CCN1CCc2onc(CNc3ncccn3)c2C1 | 8.16%
CCOCc1ncn2c1CN(S(=O)(=O)c1cccc(C)c1)CC2 | -1.4%
Cc1nc(C)c2c(n1)CCN(Cc1ccco1)CC2 | 2.27%
CC(C)NC(=O)N1CCC2(COCc3cnc(-c4ccccc4)nc32)C1 (stereo unspecified) | 9.3%
CNC(=O)N1CCc2cc(C(=O)NCC3CC3)c(NC(C)C)nc2CC1 | -7.34%
O=C(C1CCC1)N1CCC2(COCc3cnc(-c4cccnc4)nc32)C1 (stereo unspecified) | -3.5%
COCC(=O)N1CCC2(COCc3cnc(-c4ccccc4)nc32)C1 (stereo unspecified) | -3.58%
CCS(=O)(=O)N1CCc2onc(CNc3ncccn3)c2C1 | -8.6%
O=C(CC1CC1)N1CCC2(COCc3cnc(-c4ccccc4)nc32)C1 (stereo unspecified) | -8.52%
CCCNC(=O)c1nc2c(o1)CN(C(=O)CN(C)C)C2 | -8.52%
Cc1cc(C(=O)N2C[C@@H]3COC[C@]3(c3nnc(C(C)C)o3)C2)on1 | -9.37%
CCN(C)c1ncnc2c1CCN(C(=O)c1ccc(C)o1)CC2 | -11.3%
Cc1nc([C@H]2C[C@H]3CN(C(=O)c4cc(C)c(C)s4)CC[C@@H]3O2)no1 | -12.1%
COCc1cncc2c1CCN(C(=O)c1ccsc1)C2 | 9.92%
CCn1ncc2c1C(COC)CN(S(=O)(=O)C1CC1)C2 (stereo unspecified) | -8.31%
CN(C)c1ncc2c(n1)C1(CCN(Cc3cccnc3)C1)COC2 (stereo unspecified) | 4.89%
Cc1noc(C)c1CN1CC2(CCN(C(=O)c3cc[nH]n3)C2)CC1=O (stereo unspecified) | -6.88%
O=C1NC2(CCN(C(=O)c3ccnnc3)CC2)CC1c1ccccc1 (stereo unspecified) | 22.9%
Cc1ccc(Cn2cc(Br)c(NS(C)(=O)=O)n2)cc1 | -5.3%

Structure (SMILES) | cytotoxicity at 70.5 h
Cc1cccc(Cn2cc(Br)c(NS(C)(=O)=O)n2)c1 | -6.39%
CCn1cc(CNC(=O)CC(C)C)cn1 | 3.41%
COc1cccc(NC(=O)NCc2cnn(C)c2)c1 | -7.74%
CCOc1ccc(C(=O)Nc2ccn(CC)n2)cc1 | -1.03%
O=C(Cn1nc(C(F)(F)F)c(Br)c1C1CC1)N1CCOCC1 | -5.88%
Cc1nn(CCC(=O)NC2CCS(=O)(=O)C2)c(C)c1Br (stereo unspecified) | -0.845%
O=C(NCCCN1CCOCC1)c1ccn(COc2ccccc2)n1 | -7.55%
O=C(NCCN1CCOCC1)c1ccn(COc2ccc(F)cc2)n1 | -5.85%
O=C(NCCCN1CCOCC1)c1ccn(COc2ccc(F)cc2)n1 | -6.88%
CC(C(=O)Nc1ccc(Cl)cn1)n1ccc(C(F)(F)F)n1 (stereo unspecified) | 1.33%
CC(C(=O)Nc1ccon1)n1ccc(C(F)(F)F)n1 (stereo unspecified) | 15.3%
Cc1csc(NC(=O)C(C)Oc2ccc3c(c2)OCO3)n1 (stereo unspecified) | -9.39%
Cc1nn(Cc2ccc(C(=O)NCCCN3CCOCC3)o2)c(C)c1Cl | 24.8%
c1ccc(-c2cnc3n2CCNC32CCNCC2)cc1 | 43.5%
O=C(NCc1cncc2c1CCN(Cc1ccccc1)C2)C1CC1 | 9.59%
CS(=O)(=O)NCc1cncc2c1CCN(CC1CCOC1)C2 (stereo unspecified) | 2.49%
CCN1CCOCC12CCN(c1ccc(C#N)cc1)CC2 | -6.86%
Cc1ccc(OCC(=O)N2C[C@@H]3CN(C)CCO[C@@H]3C2)cc1 | -7.41%
COCCN1CCN(c2ccc(C)nn2)Cc2cccnc21 | -7.28%
O=C(NC1CC2(CCN(CCO)CC2)c2ccccc21)c1ccsc1 (stereo unspecified) | 8.71%
Cc1ccc(N2CCN(C)c3ncccc3C2)nn1 | -2.98%
COCC1CN(C(=O)COc2ccccc2C)Cc2ncn(C)c21 (stereo unspecified) | -4.45%

Structure (SMILES) | cytotoxicity at 70.5 h
COCC1CN(S(=O)(=O)Cc2ccc(C)cc2)Cc2c1cnn2C (stereo unspecified) | -6.77%
O=C(NCCN1CCOCC1)c1ccnn1-c1ccc2ccccn12 | 3.81%
CC(C)n1cnc2c1C(C(=O)N(C)C)N(Cc1ccccc1)CC2 (stereo unspecified) | -3.01%
Cc1occc1C(=O)N1C[C@H]2CCCC(OCc3cccnc3)[C@H]2C1 (stereo partly specified) | -4.67%
Cc1occc1C(=O)N1CCO[C@H]2[C@H](OCc3cccnc3)CC[C@@H]21 | -8.78%
Cc1ccc(CN2CC[C@H]3O[C@@H](C(=O)N4CCCO4)CC[C@H]32)s1 | -4%
O=C(NCc1cccnc1)C1=NOC2(CCN(C(=O)N3CCCC3)C2)C1 (stereo unspecified) | -9.94%
CCS(=O)(=O)N1CCOC2(CCCN(c3cnccn3)C2)C1 (stereo unspecified) | -6.84%
O=C(c1cnccn1)N1CCO[C@H]2[C@H](OCc3cccnc3)CC[C@@H]21 | -6.93%
Cn1ccnc1C(=O)N[C@@H]1CN(Cc2cccs2)[C@@H]2CCCO[C@@H]21 | -14.1%
COCCN1CCN(C(=O)NC2CC2)Cc2ccc(C)nc21 | -12.1%
Cc1noc(C)c1CN1CC[C@H]2OCC[C@@H](C(=O)NCC3CC3)[C@H]2C1 | -8.02%
O=C([C@H]1CC[C@@H]2[C@@H](CCN2Cc2nccs2)O1)N1CCCCO1 | -5.06%
Cn1cc(C(=O)N[C@@H]2CN(CC3CCOCC3)[C@@H]3CCCO[C@@H]32)cn1 | -7.22%
Cc1cc(C(=O)N2CCC3(CC2)CC(c2cccnc2)C(=O)N3C)no1 (stereo unspecified) | 1.74%
CCN(C)c1ncnc2c1CCN(C(=O)c1cnccn1)CC2 | -12.8%
Cc1ccc(CN2CC(C(=O)NCC3CC3)C3(CCOCC3)C2)s1 (stereo unspecified) | -7.98%
Cc1ccc(CN2CC(C(=O)NC(C)C)C3(CCOCC3)C2)s1 (stereo unspecified) | -11.4%
CC(C)N1CCC2(C=C(C(=O)N(C)C)c3ccccc32)CC1 | -16.2%
Cc1ncnc2c1CCN(C(=O)c1ccncc1)CC2 | 8.77%
CCOCC1CN(S(=O)(=O)N(C)C)Cc2cnn(CC3CC3)c21 (stereo unspecified) | 2.18%
COc1ccc(CN2CC[C@H]3CO[C@H](CNC(=O)N(C)C)[C@H]3C2)cc1 | -7.9%

Structure (SMILES) | cytotoxicity at 70.5 h
COCC(=O)N1CCC(c2nc3ccc(-c4ccncc4)cn3n2)CC1 | -6.45%
COCCN1CCC(c2nc3ccc(N4CCCC4)cn3n2)CC1 | -8.32%
Cn1nnc2c1C(COCc1ccccn1)CN(C(=O)c1ccsc1)C2 (stereo unspecified) | -6.33%
Cc1ccc(CN2C[C@@H]3CN(CC4CCOCC4)CCO[C@@H]3C2)s1 | 8.99%
CCc1cnc(N2C[C@H](OCc3csc(C)n3)[C@H]3COC[C@H]32)nc1 | 2.07%
CCN(C)c1ncc2c(c1C(=O)O)CCN(C1CCOC1)C2 (stereo unspecified) | 0.989%
Cn1cc(CN2C[C@@H](NC(=O)c3cscn3)[C@H]3OCCC[C@H]32)cn1 | -8.57%
c1cnc(N2CCCC3(CN(CC4CCOCC4)CCO3)C2)cn1 (stereo unspecified) | -3.73%
Cn1cc(C(=O)N[C@@H]2CN(Cc3cccnc3)[C@@H]3CCCO[C@@H]32)cn1 | -4.29%
Cn1cc(CN2CC[C@H]3O[C@@H](C(=O)NC4CC4)CC[C@H]32)cn1 | -1.4%
CN(Cc1ccco1)C[C@H]1OC[C@@H]2CCN(Cc3ccsc3)C[C@@H]21 | -7.38%
CC(C)Nc1nc2c(cc1C(=O)NCC1CC1)CCN(C)CC2 | -8.36%
Cc1ccc(CN2CC[C@H]3CO[C@H](CN(C)Cc4ccco4)[C@H]3C2)s1 | 4.82%
Cc1nnc(N2C[C@H](Oc3ccccn3)[C@H]3OCCC[C@H]32)s1 | 8.06%
CCN(CC)CC1CN(Cc2ccc(C)s2)Cc2nccn2C1 (stereo unspecified) | -7.85%
Cc1cccc(CO[C@H]2CN(c3nnc(C)s3)[C@@H]3CCCO[C@H]23)n1 | 0.219%
Cc1cccc(CO[C@@H]2C[C@H]3CN(c4ncccn4)CCN3C2)n1 | -1.58%
CN(Cc1ccco1)C[C@H]1OC[C@@H]2CCN(Cc3ccncc3)C[C@@H]21 | 15.7%
